Measured values: patent publication US12478617B2, “Lipidated peptide inhibitors of interleukin-23 receptor” (JANSSEN BIOTECH, INC., priority 2021, dated 2025)
Read-outs that look alike come from different tables or passages of the source.

Conditions: disulfide bond, 20-membered ring, I2/AcOH, ACN/H2O

CC(=O)NCCCC[C@@H]1NC(=O)[C@H](Cc2c[nH]c3c(C)cccc23)NC(=O)[C@H]([C@@H](C)O)NC(=O)[C@H](CC(N)=O)NC(=O)[C@@H](NC(=O)[C@@H](CCCCNC(=O)COCCOCCNC(=O)COCCOCCNC(=O)CC[C@H](NC(=O)CCCCCCCCCCCCCCCCC(=O)O)C(=O)O)NC(C)=O)C(C)(C)SSC(C)(C)[C@@H](C(=O)N[C@@H](Cc2ccc(OCCN)cc2)C(=O)N[C@@H](Cc2ccc3ccccc3c2)C(=O)NC2(C(=O)N[C@@H](CCCCNC(C)=O)C(=O)N[C@@H](CC(N)=O)C(=O)N[C@@H](Cc3cccnc3)C(=O)N(CC(N)=O)Cc3ccc(C(N)=O)cc3)CCOCC2)NC1=O
ring closure, yield after HPLC (from Ac-dLys(PEG2PEG2gEC18OH)-Pen-Asn-Thr-7MeTrp-Lys(Ac)-Pen-AEF-2Nal-THP-Lys(Ac)-Asn-3Pya-N(4AmBenzyl)Gly-NH2, 1.72 mM): 26.8%

CC(=O)NCCCC[C@@H]1NC(=O)[C@H](Cc2c[nH]c3c(C)cccc23)NC(=O)[C@H]([C@@H](C)O)NC(=O)[C@H](CC(N)=O)NC(=O)[C@@H](NC(=O)[C@@H](CCCNC(=N)N)NC(C)=O)C(C)(C)SSC(C)(C)[C@@H](C(=O)N[C@@H](Cc2ccc(OCCN)cc2)C(=O)N[C@@H](Cc2ccc3ccccc3c2)C(=O)NC2(C(=O)N[C@@H](CCC(=O)O)C(=O)N[C@@H](CC(N)=O)C(=O)N[C@@H](Cc3cccnc3)C(=O)N(C)[C@@H](CCCCNC(=O)COCCOCCNC(=O)COCCOCCNC(=O)CC[C@H](NC(=O)CCCCCCCCCCCCCCCCC(=O)O)C(=O)O)C(N)=O)CCOCC2)NC1=O
ring closure, yield after HPLC (from Ac-dArg-Pen-Asn-Thr-7MeTrp-Lys(Ac)-Pen-AEF-2Nal-THP-Glu-Asn-3Pya-MeLys(PEG2PEG2gEC18OH)-NH2, […]): 11%

CC(=O)NCCCC[C@@H]1NC(=O)[C@H](Cc2c[nH]c3c(C)cccc23)NC(=O)[C@H]([C@@H](C)O)NC(=O)[C@H](CC(N)=O)NC(=O)[C@@H](NC(=O)[C@@H](CCCCNC(=O)COCCOCCNC(=O)COCCOCCNC(=O)CC[C@H](NC(=O)CCCCCCCCCOc2cccc(C(=O)O)c2)C(=O)O)NC(C)=O)C(C)(C)SSC(C)(C)[C@@H](C(=O)N[C@@H](Cc2ccc(OCCN)cc2)C(=O)N[C@@H](Cc2ccc3ccccc3c2)C(=O)NC2(C(=O)N[C@@H](CCCCNC(=O)COCCOCCNC(=O)COCCOCCNC(=O)CC[C@H](NC(=O)CCCCCCCCCOc3cccc(C(=O)O)c3)C(=O)O)C(=O)N[C@@H](CC(N)=O)C(=O)N[C@@H](Cc3cccnc3)C(=O)N(C)CC(N)=O)CCOCC2)NC1=O
ring closure, yield after HPLC (from Ac-dLys(PEG2PEG2gEmXOH)-Pen-Asn-Thr-7MeTrp-Lys(Ac)-Pen-AEF-2Nal-THP-Lys(PEG2PEG2gEmXOH)-Asn-3Pya-Sar-NH2, […]): 13%

CC(=O)NCCCC[C@@H]1NC(=O)[C@H](Cc2c[nH]c3c(C)cccc23)NC(=O)[C@H]([C@@H](C)O)NC(=O)[C@H](CC(N)=O)NC(=O)[C@@H](NC(=O)[C@@H](CCCCNC(=O)COCCOCCNC(=O)COCCOCCNC(=O)CC[C@H](NC(=O)CCCCCCCCCCCCCCCCC(=O)O)C(=O)O)NC(C)=O)C(C)(C)SSC(C)(C)[C@@H](C(=O)N[C@@H](Cc2ccc(OCCN)cc2)C(=O)N[C@@H](Cc2ccc3ccccc3c2)C(=O)NC2(C(=O)N[C@@H](CCCCNC(C)=O)C(=O)N[C@@H](CC(N)=O)C(=O)N[C@@H](Cc3cccnc3)C(=O)N(C)CC(N)=O)CCOCC2)NC1=O
ring closure, yield after HPLC (from Ac-dLys(PEG2PEG2gEC18OH)-Pen-Asn-Thr-7MeTrp-Lys(Ac)-Pen-AEF-2Nal-THP-Lys(Ac)-Asn-3Pya-Sar-NH2, […]): 28%

CC(=O)NCCCC[C@@H]1NC(=O)[C@H](Cc2c[nH]c3c(C)cccc23)NC(=O)[C@H]([C@@H](C)O)NC(=O)[C@H](CC(N)=O)NC(=O)[C@@H](NC(=O)[C@@H](CCCNC(=N)N)NC(C)=O)C(C)(C)SSC(C)(C)[C@@H](C(=O)N[C@@H](Cc2ccc(OCCNC(=O)COCCOCCNC(=O)COCCOCCNC(=O)CC[C@H](NC(=O)CCCCCCCCCCCCCCCCC(=O)O)C(=O)O)cc2)C(=O)N[C@@H](Cc2ccc3ccccc3c2)C(=O)NC2(C(=O)N[C@@H](CCCCNC(C)=O)C(=O)N[C@@H](CC(N)=O)C(=O)N[C@@H](Cc3cccnc3)C(=O)N(C)CC(N)=O)CCOCC2)NC1=O
ring closure, yield after HPLC (from Ac-dArg-Pen-Asn-Thr-7MeTrp-Lys(Ac)-Pen-AEF(PEG2PEG2gEC18OH)-2Nal-THP-Lys(Ac)-Asn-3Pya-Sar-NH2, 0.355 mM): 10%

CCCCCCCCCCCCCCCC(=O)N[C@@H](CCC(=O)NCCCC[C@H](NC(=O)C1(NC(=O)[C@H](Cc2ccc3ccccc3c2)NC(=O)[C@H](Cc2ccc(OCCN)cc2)NC(=O)[C@H]2NC(=O)[C@H](CCCCNC(C)=O)NC(=O)[C@H](Cc3c[nH]c4c(C)cccc34)NC(=O)[C@H]([C@@H](C)O)NC(=O)[C@H](CC(N)=O)NC(=O)[C@@H](NC(=O)[C@@H](CCCCNC(=O)COCCOCCNC(=O)COCCOCCNC(=O)CC[C@H](NC(=O)CCCCCCCCCCCCCCC(=O)O)C(=O)O)NC(C)=O)C(C)(C)SSC2(C)C)CCOCC1)C(=O)N[C@@H](CC(N)=O)C(=O)N[C@@H](Cc1cccnc1)C(=O)N(C)CC(N)=O)C(=O)O
ring closure, yield after HPLC (from Ac-dLys(PEG2PEG2gEC16OH)-Pen-Asn-Thr-7MeTrp-Lys(Ac)-Pen-AEF-2Nal-THP-Lys(gEC16)-Asn-3Pya-Sar-NH2, 1.62 mM): 13%

CC(=O)NCCCC[C@@H]1NC(=O)[C@H](Cc2c[nH]c3c(C)cccc23)NC(=O)[C@H]([C@@H](C)O)NC(=O)[C@H](CC(N)=O)NC(=O)[C@@H](NC(=O)[C@@H](CCCNC(=N)N)NC(C)=O)C(C)(C)SSC(C)(C)[C@@H](C(=O)N[C@@H](Cc2ccc(OCCN)cc2)C(=O)N[C@@H](Cc2ccc3ccccc3c2)C(=O)NC2(C(=O)N[C@@H](CCC(=O)O)C(=O)N[C@@H](CC(N)=O)C(=O)N[C@@H](Cc3cccnc3)C(=O)N(C)CC(=O)N[C@@H](CCCCNC(=O)COCCOCCNC(=O)COCCOCCNC(=O)CC[C@H](NC(=O)CCCCCCCCCCCCCCCCC(=O)O)C(=O)O)C(N)=O)CCOCC2)NC1=O
ring closure, yield after HPLC (from Ac-dArg-Pen-Asn-Thr-Trp(7-Me)-Lys(Ac)-Pen-AEF-2Nal-THP-Glu-Asn-3Pya-Sar-Lys(PEG2PEG2gEC18OH)-NH2, 0.345 mM): 5%

CC(=O)NCCCC[C@@H]1NC(=O)[C@H](Cc2c[nH]c3c(C)cccc23)NC(=O)[C@H]([C@@H](C)O)NC(=O)[C@H](CC(N)=O)NC(=O)[C@@H](NC(C)=O)C(C)(C)SSC(C)(C)[C@@H](C(=O)N[C@@H](Cc2ccc(OCCN)cc2)C(=O)N[C@@H](Cc2ccc3ccccc3c2)C(=O)NC2(C(=O)N[C@@H](CCCCNC(=O)COCCOCCNC(=O)COCCOCCNC(=O)CC[C@H](NC(=O)CCCCCCCCCCCCCCCCC(=O)O)C(=O)O)C(=O)N[C@@H](CC(N)=O)C(=O)N[C@@H](Cc3cccnc3)C(=O)N(C)CC(N)=O)CCOCC2)NC1=O
ring closure, yield after HPLC (from Ac-Pen-Asn-Thr-7MeTrp-Lys(Ac)-Pen-AEF-2Nal-THP-Lys(PEG2PEG2gEC18OH)-Asn-3Pya-Sar-NH2, 0.382 mM): 24%

MeCO-k(PEG2PEG2gE(c)C180H)-Pen*-N-T-7MeW-K(Ac)-Pen*-AEF-2Nal-THP—K(Ac)-N-3Pya-Sar-CONH2
ring closure, yield after HPLC (ascorbic acid quench, 0.34 mM): 20%

CC(=O)NCCCC[C@@H]1NC(=O)[C@H](Cc2c[nH]c3c(C)cccc23)NC(=O)[C@H]([C@@H](C)O)NC(=O)[C@H](CC(N)=O)NC(=O)[C@@H](NC(=O)[C@@H](CCCCNC(=O)COCCOCCNC(=O)COCCOCCNC(=O)C[N+](C)(C)CCNC(=O)CC[C@H](NC(=O)CCCCCCCCCCCCCCCCC(=O)O)C(=O)O)NC(C)=O)C(C)(C)SSC(C)(C)[C@@H](C(=O)N[C@@H](Cc2ccc(OCCN)cc2)C(=O)N[C@@H](Cc2ccc3ccccc3c2)C(=O)NC2(C(=O)N[C@@H](CCCCNC(C)=O)C(=O)N[C@@H](CC(N)=O)C(=O)N[C@@H](Cc3cccnc3)C(=O)N(C)CC(N)=O)CCOCC2)NC1=O
ring closure, yield after HPLC (from Ac-dLys(PEG2PEG2SP6gEC18OH)-Pen-Asn-Thr-7MeTrp-Lys(Ac)-Pen-AEF-2Nal-THP-Lys(Ac)-Asn-3Pya-Sar-NH2, 0.343 mM): 35%

CC(=O)NCCCC[C@@H]1NC(=O)[C@H](Cc2c[nH]c3c(C)cccc23)NC(=O)[C@H]([C@@H](C)O)NC(=O)[C@H](CC(N)=O)NC(=O)[C@@H](NC(=O)[C@@H](CCCNC(=N)N)NC(=O)COCCOCCNC(=O)COCCOCCNC(=O)CC[C@H](NC(=O)CCCCCCCCCCCCCCCCC(=O)O)C(=O)O)C(C)(C)SSC(C)(C)[C@@H](C(=O)N[C@@H](Cc2ccc(OCCN)cc2)C(=O)N[C@@H](Cc2ccc3ccccc3c2)C(=O)NC2(C(=O)N[C@@H](CCCCNC(C)=O)C(=O)N[C@@H](CC(N)=O)C(=O)N[C@@H](Cc3cccnc3)C(=O)N(C)CC(N)=O)CCOCC2)NC1=O
ring closure, yield after HPLC (from HOC18gEPEG2PEG2-dArg-Pen-Asn-Thr-7MeTrp-Lys(Ac)-Pen-AEF-2Nal-THP-Lys(Ac)-Asn-3Pya-Sar-NH2, 0.361 mM): 22%

CC(=O)NCCCC[C@@H]1NC(=O)[C@H](Cc2c[nH]c3c(C)cccc23)NC(=O)[C@H]([C@@H](C)O)NC(=O)[C@H](CC(N)=O)NC(=O)[C@@H](NC(=O)[C@@H](CCCNC(=N)N)NC(C)=O)C(C)(C)SSC(C)(C)[C@@H](C(=O)N[C@@H](Cc2ccc(OCCN)cc2)C(=O)N[C@@H](Cc2ccc3ccccc3c2)C(=O)NC2(C(=O)N[C@@H](CCCCNC(C)=O)C(=O)N[C@@H](CC(N)=O)C(=O)N[C@@H](Cc3cccnc3)C(=O)N(CCOCCOCCNC(=O)COCCOCCNC(=O)CC[C@H](NC(=O)CCCCCCCCCCCCCCCCC(=O)O)C(=O)O)CC(N)=O)CCOCC2)NC1=O
ring closure, yield after HPLC (from Ac-dArg-Pen-Asn-Thr-7MeTrp-Lys(Ac)-Pen-AEF-2Nal-THP-Lys(Ac)-Asn-3Pya-N(PEG2PEG2gEC18OH)Gly-NH2, […]): 19.6%
